Values quoted from earlier work, collected in patent US20100197018A1, “USE OF SUBSTRATES AS PHARMACOLOGICAL CHAPERONES” (AMICUS THERAPEUTICS, INC., priority 2007, published 2010).
Read-outs that look alike come from different tables or passages of the source.

Columns and labels:
heparan-N-sulfatase = target: T1, heparan-N-sulfatase (Homo sapiens, UniProt P51688); settings: 37°; for Relative catalytic efficiency*: GlcNS = 1.00
T1 sequence (P51688 21-502): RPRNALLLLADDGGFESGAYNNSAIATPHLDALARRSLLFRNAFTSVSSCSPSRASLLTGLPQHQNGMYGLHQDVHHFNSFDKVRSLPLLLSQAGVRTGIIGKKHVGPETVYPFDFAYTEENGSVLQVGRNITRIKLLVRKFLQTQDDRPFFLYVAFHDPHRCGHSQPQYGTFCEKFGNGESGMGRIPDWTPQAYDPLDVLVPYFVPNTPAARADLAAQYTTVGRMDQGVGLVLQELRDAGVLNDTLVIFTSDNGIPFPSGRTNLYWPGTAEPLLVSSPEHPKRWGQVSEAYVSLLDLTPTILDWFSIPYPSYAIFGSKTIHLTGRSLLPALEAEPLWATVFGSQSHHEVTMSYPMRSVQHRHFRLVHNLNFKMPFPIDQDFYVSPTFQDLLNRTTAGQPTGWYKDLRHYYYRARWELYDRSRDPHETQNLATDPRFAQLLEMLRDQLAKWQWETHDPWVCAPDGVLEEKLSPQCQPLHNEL

[1] = target: T2, N-acetyl-glucosamine-6-sulfate sulfatase (6S) Form A (Homo sapiens, UniProt P15586); settings: for kcat. (turnover number) / Relative catalytic efficiency* / Km / Relative catalytic efficiency*, value in parentheses / kcat. (turnover number), value in parentheses: Form A; for Relative catalytic efficiency*: kcat./Km calculated relative to a value for GlcNAc6S = 1; for Relative catalytic efficiency*, value in parentheses: relative to GlcNAc6S = 1; for pH optimum: Table 6; for Ratio of catalytic efficiencies: form A/form B: form A over form B
T2 sequence (P15586 37-552): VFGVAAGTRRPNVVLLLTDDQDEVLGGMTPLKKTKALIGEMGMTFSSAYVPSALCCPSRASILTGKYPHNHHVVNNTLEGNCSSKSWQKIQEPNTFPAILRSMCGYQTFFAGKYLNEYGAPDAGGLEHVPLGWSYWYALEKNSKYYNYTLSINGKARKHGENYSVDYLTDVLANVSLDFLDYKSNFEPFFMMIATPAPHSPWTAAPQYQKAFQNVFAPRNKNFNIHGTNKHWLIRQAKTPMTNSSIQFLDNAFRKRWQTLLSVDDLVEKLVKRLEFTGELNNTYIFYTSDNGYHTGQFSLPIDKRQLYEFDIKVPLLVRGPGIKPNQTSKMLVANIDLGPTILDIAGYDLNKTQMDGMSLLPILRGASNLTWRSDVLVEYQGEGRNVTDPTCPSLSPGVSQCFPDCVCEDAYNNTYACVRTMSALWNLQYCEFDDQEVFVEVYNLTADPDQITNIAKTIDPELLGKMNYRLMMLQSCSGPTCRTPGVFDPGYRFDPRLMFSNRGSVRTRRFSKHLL

[2] = target: T3, N-acetyl-glucosamine-6-sulfate sulfatase (6S) Form B (Homo sapiens, UniProt P15586)
T3 sequence (P15586 37-552): T2 sequence (P15586 37-552)

[3] = in vivo
BACEI = BACEI (Homo sapiens, UniProt P56817); settings: low concentrations
BACEI, sequence (P56817 46-457 limits assumed): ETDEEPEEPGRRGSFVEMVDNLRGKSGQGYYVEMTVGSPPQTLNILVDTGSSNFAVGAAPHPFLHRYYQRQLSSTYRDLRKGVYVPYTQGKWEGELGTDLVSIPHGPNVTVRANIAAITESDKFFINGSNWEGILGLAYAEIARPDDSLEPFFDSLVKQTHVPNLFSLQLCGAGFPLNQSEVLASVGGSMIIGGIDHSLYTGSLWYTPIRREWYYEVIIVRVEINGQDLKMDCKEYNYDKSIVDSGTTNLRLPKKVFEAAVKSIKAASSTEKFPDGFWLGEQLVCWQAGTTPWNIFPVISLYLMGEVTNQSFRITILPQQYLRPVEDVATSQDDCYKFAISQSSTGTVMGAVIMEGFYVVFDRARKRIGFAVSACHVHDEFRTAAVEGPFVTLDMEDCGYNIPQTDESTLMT

[4] = pH 5.6 (second line of the substrate)
[5] = pH: GlcNS-Ido 6.7, GlcNS-Ido2S 5.5, GlcNS-IdOA 5.6, GlcNS-IdoA-GlcNS-IdOA 5.6, GlcNS-IdoA2S-anM6S 3.6, GlcNS6S-Ido 4.2, GlcNS6S-Ido2S 3.8, GlcNS6S-IdOA 4.2
[6] = second line of the substrate, parentheses not explained
[7] = second line of the substrate, parentheses not explained, read-out: Km, value in parentheses

O=C(O)[C@H](O)[C@@H](O[C@H]1O[C@H](COS(=O)(=O)O)[C@@H](O)[C@H](O)[C@H]1NS(=O)(=O)O)[C@H](O)[C@@H](O)CO [GlcNS6S-IdOA, O-(α-2-sulphaminoglucosamine 6 sulphate)-(1-3)-L-idonic acid]
Km (heparan-N-sulfatase; [4]): 2400 nM | kcat. (turnover number) (heparan-N-sulfatase; [4]): 0.088 mol/min per mol of enzyme | Relative catalytic efficiency* (heparan-N-sulfatase; [4]): 50 | Relative catalytic efficiency* (heparan-N-sulfatase; pH (optimum)): 33 | Km (heparan-N-sulfatase; [5]): 2500 nM | kcat. (turnover number) (heparan-N-sulfatase; [5]): 0.105 mol/min per mol of enzyme | kcat. (turnover number) [1]: 2.46 mol/min per mol of enzyme | Relative catalytic efficiency* [1]: 13 | Km ([1]; read-out: Km): 8 µM | Relative catalytic efficiency*, value in parentheses ([1]; parentheses not explained): (9.8) | kcat. (turnover number), value in parentheses [1, 6]: (1.725) mol/min per mol of enzyme | Km [1, 7]: 7.6 µM | pH optimum [1]: 5.0 | Ratio of catalytic efficiencies: form A/form B [1]: 2.2 | Ratio of catalytic efficiencies: form A/form B, value in parentheses [1, 6]: (2.5) | pH optimum, value in parentheses [1, 6]: (5.0) | Km ([2]; read-out: Km): 8.3 µM | Km [2, 7]: 6.6 µM

O=C[C@H](O)[C@@H](O)[C@H](O[C@H]1O[C@H](COS(=O)(=O)O)[C@@H](O)[C@H](O)[C@H]1NS(=O)(=O)O)[C@@H](O)CO [GlcNS6S-Ido, O-(α-2-sulphaminoglucosamine 6-sulphate)-(1-4)-L-idose]
Relative catalytic efficiency* (heparan-N-sulfatase; pH (optimum)): 28 | Km (heparan-N-sulfatase; [5]): 3000 nM | kcat. (turnover number) (heparan-N-sulfatase; [5]): 0.061 mol/min per mol of enzyme | kcat. (turnover number) [1]: 0.518 mol/min per mol of enzyme | Relative catalytic efficiency* [1]: 2.1 | Km ([1]; read-out: Km): 10.8 µM | pH optimum [1]: 4.8 | Ratio of catalytic efficiencies: form A/form B [1]: 1.9 | Km ([2]; read-out: Km): 9.2 µM

heparan sulphate
oral activity [3]: orally active

CC(=O)N[C@H]1[C@@H](O[C@@H]([C@H](O)[C@@H](O)CO)[C@@H](O)C(=O)O)O[C@H](COS(=O)(=O)O)[C@@H](O)[C@@H]1O [GlcNAc6S-IdOA, O-(α-N-acetylglucosamine 6-sulphate)-(1-3)-L-idonic acid]
pH optimum of 6S activity [1]: 5.0 | kcat. (turnover number) [1]: 7.90 mol/min per mol of enzyme | Relative catalytic efficiency* [1]: 31 | Km ([1]; read-out: Km): 11.1 µM | Relative catalytic efficiency*, value in parentheses ([1]; parentheses not explained): (29) | kcat. (turnover number), value in parentheses [1, 6]: (6.79) mol/min per mol of enzyme | Km [1, 7]: 10 µM | pH optimum [1]: 5.0 | Ratio of catalytic efficiencies: form A/form B [1]: 2.4 | Ratio of catalytic efficiencies: form A/form B, value in parentheses [1, 6]: (2.8) | pH optimum, value in parentheses [1, 6]: (5.0) | Km ([2]; read-out: Km): 14.3 µM | Km [2, 7]: 13.2 µM

heparin
effect on partially active BACEI (BACEI): stimulate partially active BACEI

CC(=O)N[C@H]1C(O)O[C@H](COS(=O)(=O)O)[C@@H](O)[C@@H]1O (stereo partly drawn) [GlcNAc6S, N-acetyl-glucosamine 6-sulfate]
pH optimum of 6S activity [1]: 5.7 | kcat. (turnover number) [1]: 0.165 mol/min per mol of enzyme | Relative catalytic efficiency* [1]: 1.0 | Km ([1]; read-out: Km): 7.1 µM | pH optimum [1]: 5.7 | decrease in the Km ([1]; addition of a 2-acetamido group to Glc6S): 6-9 fold | Ratio of catalytic efficiencies: form A/form B [1]: 2.1 | effect on Kcat ([1]; relative to the parent substrate (Glc6S for GlcNAc6S; GlcNAc6S for GlcNAc6S-Ido)): decrease in Kcat | Km ([2]; read-out: Km): 10 µM
